Results from ChEMBL document CHEMBL1821719, “2,7-disubstituted-pyrrolo[2,1-f][1,2,4]triazines: new variant of an old template and application to the discovery of anaplastic lymphoma kinase (ALK) inhibitors with in vivo antitumor activity” (J Med Chem, 2011).
Values belong to the molecule of their own block, whether it stands above or below them.

What was measured:
Insulin receptor = Insulin receptor (Homo sapiens, UniProt P06213); assay: Inhibition of IR
[1] = target: ALK tyrosine kinase receptor (Homo sapiens, UniProt Q9UM73); assay: Inhibition of human recombinant ALK assessed as phosphorylated product using PLC-gamma/GST substrate by modified ELISA method
[2] = target: NPM/ALK (Nucleophosmin/ALK tyrosine kinase receptor) (Homo sapiens, UniProt Q9UM73); assay: Inhibition of NPM/ALK phosphorylation in human KARPAS299 cells by ELISA; format: cell-based, KARPAS-299
[3] = Oral bioavailability in Sprague-Dawley rat; format: ADME, organism-based; settings: in vivo
[4] = Antitumor activity against human SUP-M2 cells xenografted into SCID mouse at 55 mg/kg, po administered bid; format: functional; settings: read-out: TGI
Mus musculus [5] = assay: Toxicity in SCID mouse assessed as weight loss at 30 mg/kg, po bid; format: organism-based; parameters: dose 30 mg/kg, route oral; settings: in vivo
[6] = Antitumor activity against human SUP-M2 cells xenografted into SCID mouse at 30 mg/kg, po bid; format: functional; settings: read-out: TGI
Mus musculus [7] = assay: Toxicity in SCID mouse assessed as weight loss at 10 mg/kg, po bid; format: organism-based; parameters: dose 10 mg/kg, route oral; settings: in vivo
Mus musculus [8] = assay: Toxicity in SCID mouse assessed as weight loss at 55 mg/kg, po bid; format: organism-based; parameters: dose 55 mg/kg, route oral; settings: in vivo
[9] = Plasma concentration in human SUP-M2 cells xenografted SCID mouse at 30 mg/kg, po measured after 2 hrs by LC/MS analysis; format: ADME, organism-based; parameters: dose 30 mg/kg, route oral
[10] = AUC in SCID mouse at 10 mg/kg, po; format: ADME, organism-based; parameters: dose 10 mg/kg, route oral; settings: plasma
[11] = Oral bioavailability in SCID mouse at 10 mg/kg; format: ADME, organism-based; settings: in vivo
[12] = Drug level in human SUP-M2 cells xenografted SCID mouse tumor at 30 mg/kg, po bid for 12 days measured after 2 hrs of final dose by LC/MS analysis; format: ADME, organism-based, Neoplasm; parameters: dose 30 mg/kg, route oral; settings: read-out: Drug uptake
[13] = Apparent permeability from apical to basolateral side of human Caco2 cells; format: ADME, cell-based; settings: Caco-2
[14] = Drug level in human SUP-M2 cells xenografted SCID mouse tumor at 30 mg/kg, po after 6 hrs by LC/MS analysis; format: ADME, organism-based, Neoplasm; parameters: dose 30 mg/kg, route oral; settings: read-out: Drug uptake
[15] = Plasma concentration in human SUP-M2 cells xenografted SCID mouse at 55 mg/kg, po bid for 12 days measured after 2 hrs of final dose by LC/MS analysis; format: ADME, organism-based; parameters: dose 55 mg/kg, route oral
[16] = Inhibition of NPM-ALK phosphorylation in SUP-M2 cells xenografted in SCID mouse at 30 mg/kg, po measured upto 12 hrs by immunoblotting; format: functional; settings: SUP-M2, 12 h
[17] = Plasma concentration in human SUP-M2 cells xenografted SCID mouse at 30 mg/kg, po measured after 6 hrs by LC/MS analysis; format: ADME, organism-based; parameters: dose 30 mg/kg, route oral
[18] = Plasma concentration in human SUP-M2 cells xenografted SCID mouse at 30 mg/kg, po measured after 12 hrs by LC/MS analysis; format: ADME, organism-based; parameters: dose 30 mg/kg, route oral
[19] = Tmax in SCID mouse at 10 mg/kg, po; format: ADME, organism-based; parameters: dose 10 mg/kg, route oral; settings: in vivo
[20] = Plasma concentration in human SUP-M2 cells xenografted SCID mouse at 10 mg/kg, po bid for 12 days measured after 2 hrs of final dose by LC/MS analysis; format: ADME, organism-based; parameters: dose 10 mg/kg, route oral
[21] = Antiproliferative activity against human SUP-M2 cells after 48 hrs by MTS assay; format: functional, cell-based; settings: SUP-M2, 48 h
[22] = Volume of distribution in Sprague-Dawley rat at 1 mg/kg, iv; format: ADME, organism-based; parameters: dose 1 mg/kg, route intravenous; settings: in vivo
[23] = Drug level in human SUP-M2 cells xenografted SCID mouse tumor at 30 mg/kg, po after 2 hrs by LC/MS analysis; format: ADME, organism-based, Neoplasm; parameters: dose 30 mg/kg, route oral; settings: read-out: Drug uptake
[24] = Oral bioavailability in Sprague-Dawley rat at 5 mg/kg; format: ADME, organism-based; settings: in vivo
[25] = AUC in Sprague-Dawley rat at 5 mg/kg, po; format: ADME, organism-based; parameters: dose 5 mg/kg, route oral; settings: plasma
[26] = Antitumor activity against human SUP-M2 cells xenografted into SCID mouse at 10 mg/kg, po bid; format: functional; settings: read-out: TGI
[27] = Plasma concentration in human SUP-M2 cells xenografted SCID mouse at 30 mg/kg, po bid for 12 days measured after 2 hrs of final dose by LC/MS analysis; format: ADME, organism-based; parameters: dose 30 mg/kg, route oral
[28] = Volume of distribution in SCID mouse at 1 mg/kg, iv; format: ADME, organism-based; parameters: dose 1 mg/kg, route intravenous; settings: in vivo
KARPAS-299 = assay: Antiproliferative activity against human KARPAS299 cells by MTS assay; format: functional, cell-based
[29] = Tmax in Sprague-Dawley rat at 5 mg/kg, po; format: ADME, organism-based; parameters: dose 5 mg/kg, route oral; settings: in vivo
[30] = Drug level in human SUP-M2 cells xenografted SCID mouse tumor at 30 mg/kg, po after 12 hrs by LC/MS analysis; format: ADME, organism-based, Neoplasm; parameters: dose 30 mg/kg, route oral; settings: read-out: Drug uptake
[31] = Plasma concentration in human SUP-M2 cells xenografted SCID mouse at 30 mg/kg, po measured after 24 hrs by LC/MS analysis; format: ADME, organism-based; parameters: dose 30 mg/kg, route oral
[32] = AUC in SCID mouse at 1 mg/kg, iv; format: ADME, organism-based; parameters: dose 1 mg/kg, route intravenous; settings: plasma
[33] = AUC in Sprague-Dawley rat at 1 mg/kg, iv; format: ADME, organism-based; parameters: dose 1 mg/kg, route intravenous; settings: plasma
[34] = Drug level in human SUP-M2 cells xenografted SCID mouse tumor at 30 mg/kg, po after 24 hrs by LC/MS analysis; format: ADME, organism-based, Neoplasm; parameters: dose 30 mg/kg, route oral; settings: read-out: Drug uptake
[35] = Drug level in human SUP-M2 cells xenografted SCID mouse tumor at 10 mg/kg, po bid for 12 days measured after 2 hrs of final dose by LC/MS analysis; format: ADME, organism-based, Neoplasm; parameters: dose 10 mg/kg, route oral; settings: read-out: Drug uptake

Insulin receptor, sequence (P06213 28-758 limits assumed): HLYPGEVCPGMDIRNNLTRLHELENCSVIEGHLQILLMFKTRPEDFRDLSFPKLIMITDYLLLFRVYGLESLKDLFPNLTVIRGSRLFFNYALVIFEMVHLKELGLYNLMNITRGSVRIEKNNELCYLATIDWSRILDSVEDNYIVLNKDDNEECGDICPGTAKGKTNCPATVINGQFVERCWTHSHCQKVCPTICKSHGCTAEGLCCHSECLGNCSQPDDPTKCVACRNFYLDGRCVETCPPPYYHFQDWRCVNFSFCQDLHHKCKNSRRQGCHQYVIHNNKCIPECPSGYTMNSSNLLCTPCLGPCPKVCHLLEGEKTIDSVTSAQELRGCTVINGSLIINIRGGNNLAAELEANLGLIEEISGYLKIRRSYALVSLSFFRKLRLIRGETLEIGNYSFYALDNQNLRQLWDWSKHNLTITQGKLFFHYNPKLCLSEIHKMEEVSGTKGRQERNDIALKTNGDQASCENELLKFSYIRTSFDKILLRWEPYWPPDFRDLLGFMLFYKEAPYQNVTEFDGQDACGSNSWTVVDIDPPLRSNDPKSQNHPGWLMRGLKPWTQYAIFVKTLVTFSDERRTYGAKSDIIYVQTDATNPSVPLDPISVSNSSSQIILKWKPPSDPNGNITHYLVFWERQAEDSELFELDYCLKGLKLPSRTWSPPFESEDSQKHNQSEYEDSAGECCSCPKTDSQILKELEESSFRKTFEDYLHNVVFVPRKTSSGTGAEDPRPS
Insulin receptor, sequence (P06213 763-1382 limits assumed): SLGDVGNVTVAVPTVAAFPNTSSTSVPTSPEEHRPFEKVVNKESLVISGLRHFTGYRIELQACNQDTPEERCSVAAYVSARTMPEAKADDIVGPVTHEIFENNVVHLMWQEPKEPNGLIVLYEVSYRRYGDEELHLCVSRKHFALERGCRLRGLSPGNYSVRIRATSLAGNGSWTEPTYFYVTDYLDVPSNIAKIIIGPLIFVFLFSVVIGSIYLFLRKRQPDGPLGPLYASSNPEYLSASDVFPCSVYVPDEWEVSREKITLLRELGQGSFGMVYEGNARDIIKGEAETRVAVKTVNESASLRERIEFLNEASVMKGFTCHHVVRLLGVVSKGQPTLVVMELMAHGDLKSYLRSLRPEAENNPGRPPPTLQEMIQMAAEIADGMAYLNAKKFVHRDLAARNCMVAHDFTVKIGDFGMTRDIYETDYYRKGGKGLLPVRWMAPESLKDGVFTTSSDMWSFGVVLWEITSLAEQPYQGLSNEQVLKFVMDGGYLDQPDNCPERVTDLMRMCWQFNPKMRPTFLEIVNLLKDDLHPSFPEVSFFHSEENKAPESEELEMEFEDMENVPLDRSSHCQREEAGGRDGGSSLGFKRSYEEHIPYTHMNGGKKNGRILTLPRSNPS
ALK tyrosine kinase receptor, sequence (Q9UM73 whole entry): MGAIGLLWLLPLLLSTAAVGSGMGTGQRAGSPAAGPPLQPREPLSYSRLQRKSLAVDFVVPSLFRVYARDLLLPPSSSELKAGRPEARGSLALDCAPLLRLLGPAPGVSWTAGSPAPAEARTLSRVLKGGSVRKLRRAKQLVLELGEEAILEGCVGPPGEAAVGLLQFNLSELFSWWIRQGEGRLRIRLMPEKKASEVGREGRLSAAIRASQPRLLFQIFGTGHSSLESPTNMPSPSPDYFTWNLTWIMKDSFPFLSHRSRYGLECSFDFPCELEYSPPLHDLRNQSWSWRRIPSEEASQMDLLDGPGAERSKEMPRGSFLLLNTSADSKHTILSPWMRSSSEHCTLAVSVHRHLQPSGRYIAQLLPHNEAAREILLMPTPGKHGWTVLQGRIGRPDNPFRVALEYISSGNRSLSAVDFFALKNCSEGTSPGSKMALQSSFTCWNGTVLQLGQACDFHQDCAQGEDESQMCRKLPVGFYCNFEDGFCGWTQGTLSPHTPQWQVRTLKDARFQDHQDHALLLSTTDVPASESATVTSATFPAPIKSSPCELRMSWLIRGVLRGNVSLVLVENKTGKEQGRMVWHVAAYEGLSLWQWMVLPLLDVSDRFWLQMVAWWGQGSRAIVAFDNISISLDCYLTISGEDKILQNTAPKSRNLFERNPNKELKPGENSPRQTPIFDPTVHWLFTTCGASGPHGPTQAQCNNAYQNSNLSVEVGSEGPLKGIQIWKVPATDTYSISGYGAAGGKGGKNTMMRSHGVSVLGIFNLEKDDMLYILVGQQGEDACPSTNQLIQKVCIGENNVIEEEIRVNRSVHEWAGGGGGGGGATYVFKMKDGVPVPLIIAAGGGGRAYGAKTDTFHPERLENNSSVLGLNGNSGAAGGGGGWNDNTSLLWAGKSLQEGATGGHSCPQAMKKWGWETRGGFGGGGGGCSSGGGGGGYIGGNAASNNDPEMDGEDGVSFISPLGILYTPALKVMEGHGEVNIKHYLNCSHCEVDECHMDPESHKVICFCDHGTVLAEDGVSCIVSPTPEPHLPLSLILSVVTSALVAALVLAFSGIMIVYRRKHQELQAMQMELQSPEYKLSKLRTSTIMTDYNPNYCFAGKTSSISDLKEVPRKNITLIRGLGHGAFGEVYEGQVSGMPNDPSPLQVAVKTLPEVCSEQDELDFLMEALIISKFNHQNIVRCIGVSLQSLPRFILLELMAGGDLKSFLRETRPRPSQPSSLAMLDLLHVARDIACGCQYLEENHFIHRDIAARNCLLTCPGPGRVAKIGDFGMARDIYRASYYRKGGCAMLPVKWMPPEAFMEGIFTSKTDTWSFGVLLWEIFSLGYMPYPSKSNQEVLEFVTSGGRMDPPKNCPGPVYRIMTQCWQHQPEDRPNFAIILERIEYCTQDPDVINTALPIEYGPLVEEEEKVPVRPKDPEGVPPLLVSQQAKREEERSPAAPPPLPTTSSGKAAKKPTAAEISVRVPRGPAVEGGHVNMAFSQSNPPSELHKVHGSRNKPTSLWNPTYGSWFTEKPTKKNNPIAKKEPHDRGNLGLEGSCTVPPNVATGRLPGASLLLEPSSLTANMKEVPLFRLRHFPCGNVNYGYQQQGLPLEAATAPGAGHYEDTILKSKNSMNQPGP
NPM/ALK (Nucleophosmin/ALK tyrosine kinase receptor), sequence (Q9UM73 whole entry): as above
NPM/ALK (Nucleophosmin/ALK tyrosine kinase receptor), sequence (P06748 whole entry, further chain): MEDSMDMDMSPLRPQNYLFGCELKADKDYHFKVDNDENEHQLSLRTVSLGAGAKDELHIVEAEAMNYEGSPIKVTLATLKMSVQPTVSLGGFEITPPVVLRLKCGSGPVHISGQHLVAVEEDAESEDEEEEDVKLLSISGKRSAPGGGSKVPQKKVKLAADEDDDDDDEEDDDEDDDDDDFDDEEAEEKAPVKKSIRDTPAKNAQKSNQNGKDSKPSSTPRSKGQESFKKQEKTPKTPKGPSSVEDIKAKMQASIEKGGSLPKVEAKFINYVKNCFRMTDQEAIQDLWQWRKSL

IC50 (Insulin receptor): 1870 nM | IC50 [1]: 260 nM
Compound: CN1CCN(c2ccc(Nc3ncc4ccc(-c5ccccc5NS(C)(=O)=O)n4n3)cc2)CC1

IC50 (Insulin receptor): 391 nM | IC50 [2]: 100 nM | IC50 [1]: 9 nM
Compound: COc1cc(N2CCN(C)CC2)ccc1Nc1ncc2ccc(-c3ccccc3OC)n2n1

IC50 (Insulin receptor): 206 nM | bioavailability [3]: 8% | IC50 [2]: 100 nM | IC50 [1]: 5 nM
Compound: COc1cc(N2CCN(C[C@H](C)O)CC2)ccc1Nc1ncc2ccc(-c3ccccc3OC)n2n1

IC50 (Insulin receptor): 160 nM | bioavailability [3]: 6% | IC50 [2]: 80 nM | IC50 [1]: 3.8 nM
Compound: COc1cc(N2CCN(C[C@@H](C)O)CC2)ccc1Nc1ncc2ccc(-c3ccccc3OC)n2n1

IC50 (Insulin receptor): 357 nM | bioavailability [3]: 34% | IC50 [2]: 85 nM | IC50 [1]: 9 nM
Compound: COc1cc(N2CCN(N3CCOCC3)CC2)ccc1Nc1ncc2ccc(-c3ccccc3OC)n2n1
inhibition in vivo at 55 mg/kg [4]: 98% | Activity (Mus musculus [5]): Non-toxic | inhibition in vivo at 30 mg/kg [6]: 60% | Activity (Mus musculus [7]): Non-toxic | Activity (Mus musculus [8]): Non-toxic

IC50 (Insulin receptor): 934 nM | IC50 [2]: 200 nM | IC50 [1]: 9 nM
Compound: COc1cc(N2CCN(C)CC2)ccc1Nc1ncc2ccc(-c3ccccc3N(C)S(C)(=O)=O)n2n1

concentration at 2 h [9]: 2160 ng/mL | AUC [10]: 2520 ng·h/mL | bioavailability [11]: 36% | concentration at 2 h [12]: 3120 ng/g | Papp A→B [13]: 20.3 ×10⁻⁶ cm/s | concentration at 6 h [14]: 792 ng/g | concentration at 2 h [15]: 2890 ng/mL | concentration at 6 h [17]: 950 ng/mL | concentration at 12 h [18]: 155 ng/mL | Tmax [19]: 1 h | concentration at 2 h [20]: 516 ng/mL | bioavailability [3]: 38% | Vd [22]: 3.3 L/kg | concentration at 2 h [23]: 1440 ng/g | bioavailability [24]: 38% | AUC [25]: 610 ng·h/mL | concentration at 2 h [27]: 1580 ng/mL | Vd [28]: 2.1 L/kg | IC50 (KARPAS-299): 477 nM | Tmax [29]: 2 h | concentration at 12 h [30]: 235 ng/g | concentration at 24 h [31]: < 10 ng/mL | AUC [32]: 661 ng·h/mL | AUC [33]: 343 ng·h/mL | concentration at 24 h [34]: < 30 ng/g | concentration at 2 h [35]: 1530 ng/g
Compound: COc1cc(N2CCN(C[C@H](C)O)CC2)ccc1Nc1ncc2ccc(-c3ccccc3N(C)S(C)(=O)=O)n2n1
inhibition in vivo at 55 mg/kg [4]: 98% | inhibition in vivo at 30 mg/kg [16]: 75% | IC50 [21]: 87 nM | inhibition in vivo at 30 mg/kg [6]: 81% | inhibition in vivo at 10 mg/kg [26]: 35%

bioavailability [3]: 41%
Compound: COc1cc(N2CCN(C[C@@H](C)O)CC2)ccc1Nc1ncc2ccc(-c3ccccc3N(C)S(C)(=O)=O)n2n1

IC50 (Insulin receptor): 809 nM | bioavailability [3]: 47% | IC50 [2]: 50 nM | IC50 [1]: 7 nM
Compound: COc1cc(N2CCC(N3CCOCC3)CC2)ccc1Nc1ncc2ccc(-c3ccccc3N(C)S(C)(=O)=O)n2n1
inhibition in vivo at 55 mg/kg [4]: 96% | Activity (Mus musculus [5]): Non-toxic | inhibition in vivo at 30 mg/kg [6]: 50% | Activity (Mus musculus [7]): Non-toxic | Activity (Mus musculus [8]): Non-toxic
